Laboratory results published in US8314143B2, “Synthetic flavonoids and pharmaceutical compositions and therapeutic methods of treatment of HIV infection and other pathologies” (Florida A&M University, priority 2006, dated 2012).
Values joined by “and” are separate entries in the source; they are usually repeats but may differ in a detail not shown here. Identical values can stand only once. “Also recorded” adds a separate entry of the source. Like-named read-outs stand apart in the source and are kept apart here.

How the values were obtained:
Assay type in all cases: cell-based
H-9 cells = test: Cytoxicity on H-9 cells (drug inhibition, cell count); conditions: for inhibitory activity compared to AZT: same conditions as AZT; for H-9 Mean (drug inhibition): Table 4 summary; for % Inhibition Mean / Cells (×10^4) Mean / % Inhibition / Cells (×10^4): Exp. Dec. 05 to Dec. 09, 2005; for % Inhibition / Cells (×10^4): single replicates
Source text: (§1) The purified and identified analogs were subjected to in vitro biological testing. […] These three congeners were further evaluated in H9 and PC3 cells. AZT was employed as a positive control in all of these experiments.

MCF-7 cells = test: Cytoxicity on MCF-7 cells (drug inhibition, cell count); design: Drug Inhibition on MCF-7 Cells / MCF-7 Mean (drug inhibition) / Drug inhibition on MCF-7 Cells Mean: unit not given here; conditions: for inhibition at 1 µg/mL / inhibition at 5 µg/mL / inhibition at 10 µg/mL / inhibition at 50 µg/mL: Homo sapiens, MCF7, MCF-7 cells; for response to MCF-7 cells in the different drug concentrations / Cells (×10^4) Mean / Cells (×10^4) / % Inhibition / inhibitory activity compared to AZT / Drug Inhibition on MCF-7 Cells / % Inhibition Mean: MCF-7 cells; for inhibitory activity compared to AZT: same conditions as AZT; for Drug Inhibition on MCF-7 Cells: Table 8 summary
Source text: as §1

PC-3 cells = test: Cytoxicity on PC-3 cells (drug inhibition, cell count); conditions: for inhibitory activity compared to AZT: same conditions as AZT; for Drug Inhibition on PC-3 cells: Table 7; for % Inhibition Mean / Cells (×10^4) Mean / % Inhibition / Cells (×10^4): Exp. Nov. 11 to Nov. 17, 2005; for % Inhibition / Cells (×10^4): single replicates
Source text: The purified and identified analogs were subjected to in vitro biological testing.

[1] = drug 1 μg/ml, mean of replicates
[2] = drug 1 μg/ml, single replicate count
[3] = drug 1 μg/ml, single replicate, vs 2% DMSO
[4] = drug 5 μg/ml, mean of replicates
[5] = drug 5 μg/ml, single replicate count
[6] = drug 5 μg/ml, single replicate, vs 2% DMSO
[7] = drug 10 μg/ml, mean of replicates
[8] = drug 10 μg/ml, single replicate count
[9] = drug 10 μg/ml, single replicate, vs 2% DMSO
[10] = drug 50 μg/ml, mean of replicates
[11] = drug 50 μg/ml, single replicate count
[12] = drug 50 μg/ml, single replicate, vs 2% DMSO
[13] = 1 μg/ml, mean, Exp. Nov. 14 to Nov. 18, 2005
[14] = 1 μg/ml, single replicates, Exp. Nov. 14 to Nov. 18, 2005
[15] = 5 μg/ml, mean, Exp. Nov. 14 to Nov. 18, 2005
[16] = 5 μg/ml, single replicates, Exp. Nov. 14 to Nov. 18, 2005
[17] = 10 μg/ml, mean, Exp. Nov. 14 to Nov. 18, 2005
[18] = 10 μg/ml, single replicates, Exp. Nov. 14 to Nov. 18, 2005
[19] = 50 μg/ml, mean, Exp. Nov. 14 to Nov. 18, 2005
[20] = 50 μg/ml, single replicates, Exp. Nov. 14 to Nov. 18, 2005

## COc1cc(C=CC(=O)c2cc(C)cc([N+](=O)[O-])c2O)cc(OC)c1OC [CHNM 3M]
H-9 cells
  inhibitory activity compared to AZT: much superior inhibitory activities
MCF-7 cells; drug 1 μg/ml, mean of replicates, vs 2% DMSO, read-out: % Inhibition Mean
  inhibition at 1 µg/mL: 12.6%
MCF-7 cells; drug 1 μg/ml, single replicate, vs 2% DMSO, read-out: % Inhibition
  inhibition at 1 µg/mL: 13.1%
MCF-7 cells; drug 5 μg/ml, mean of replicates, vs 2% DMSO, read-out: % Inhibition Mean
  inhibition at 5 µg/mL: 51.4%
MCF-7 cells; drug 5 μg/ml, single replicate, vs 2% DMSO, read-out: % Inhibition
  inhibition at 5 µg/mL: 49.4%
MCF-7 cells; drug 10 μg/ml, mean of replicates, vs 2% DMSO, read-out: % Inhibition Mean
  inhibition at 10 µg/mL: 90.3%
MCF-7 cells; drug 10 μg/ml, single replicate, vs 2% DMSO, read-out: % Inhibition
  inhibition at 10 µg/mL: 90.2%
MCF-7 cells; drug 50 μg/ml, mean of replicates, vs 2% DMSO, read-out: % Inhibition Mean
  inhibition at 50 µg/mL: 96.6%
MCF-7 cells; drug 50 μg/ml, single replicate, vs 2% DMSO, read-out: % Inhibition
  inhibition at 50 µg/mL: 96.6%
MCF-7 cells
  response to MCF-7 cells in the different drug concentrations: good activities
  inhibitory activity compared to AZT: much superior inhibitory activities
MCF-7 cells; [1]
  Cells (×10^4) Mean: 44.50 ×10^4
MCF-7 cells; [2]
  Cells (×10^4): 44.3 ×10^4 (2×) and 45.0 ×10^4
MCF-7 cells; [3]
  % Inhibition: 11.62%
MCF-7 cells; [4]
  Cells (×10^4) Mean: 24.75 ×10^4
MCF-7 cells; [5]
  Cells (×10^4): 25.8 ×10^4 and 24.0 ×10^4 and 24.5 ×10^4
MCF-7 cells; [6]
  % Inhibition: 52.86% and 51.88%
MCF-7 cells; [7]
  Cells (×10^4) Mean: 4.92 ×10^4
MCF-7 cells; [8]
  Cells (×10^4): 5.0 ×10^4 (2×) and 4.8 ×10^4
MCF-7 cells; [9]
  % Inhibition: 90.67%
MCF-7 cells; [10]
  Cells (×10^4) Mean: 1.75 ×10^4
MCF-7 cells; [11]
  Cells (×10^4): 1.8 ×10^4 and 2.0 ×10^4 and 1.5 ×10^4
MCF-7 cells; [12]
  % Inhibition: 96.07% and 97.05%
PC-3 cells
  inhibitory activity compared to AZT: much superior inhibitory activities

## COc1ccc(C=CC(=O)c2cc(Cl)cc(Cl)c2O)cc1OC [CHCl 2M]
H-9 cells; 1 μg/ml
  H-9 Mean (drug inhibition): 15.92
  % Inhibition Mean: 15.92%
  Cells (×10^4) Mean: 42.25 ×10^4
  % Inhibition: 16.42% and 15.92% and 15.42%
  Cells (×10^4): 42.0 ×10^4 and 42.3 ×10^4 and 42.6 ×10^4
H-9 cells; 5 μg/ml
  H-9 Mean (drug inhibition): 52.24
  % Inhibition Mean: 52.24%
  Cells (×10^4) Mean: 24.00 ×10^4
  % Inhibition: 52.24% and 52.74% and 51.74%
  Cells (×10^4): 24.0 ×10^4 and 23.8 ×10^4 and 24.3 ×10^4
H-9 cells; 10 μg/ml
  H-9 Mean (drug inhibition): 74.3
  % Inhibition Mean: 74.30%
  Cells (×10^4) Mean: 12.92 ×10^4
  % Inhibition: 74.13% and 77.11% and 71.64%
  Cells (×10^4): 13.0 ×10^4 and 11.5 ×10^4 and 14.3 ×10^4
H-9 cells; 50 μg/ml
  H-9 Mean (drug inhibition): 91.04
  % Inhibition Mean: 91.04%
  Cells (×10^4) Mean: 4.50 ×10^4
  % Inhibition: 92.04% and 91.04% and 90.05%
  Cells (×10^4): 4.0 ×10^4 and 4.5 ×10^4 and 5.0 ×10^4
H-9 cells
  inhibitory activity compared to AZT: much superior inhibitory activities; also recorded: as good or somewhat better
MCF-7 cells
  response to MCF-7 cells in the different drug concentrations: good activities
  inhibitory activity compared to AZT: much superior inhibitory activities; also recorded: as good or somewhat better
MCF-7 cells; 1 μg/ml
  Drug Inhibition on MCF-7 Cells: 14.55
MCF-7 cells; [13]
  % Inhibition Mean: 14.55%
  Cells (×10^4) Mean: 49.42 ×10^4
MCF-7 cells; [14]
  % Inhibition: 13.98% and 16.14% and 13.54%
  Cells (×10^4): 49.8 ×10^4 and 48.5 ×10^4 and 50.0 ×10^4
MCF-7 cells; 5 μg/ml
  Drug Inhibition on MCF-7 Cells: 44.09
MCF-7 cells; [15]
  % Inhibition Mean: 44.09%
  Cells (×10^4) Mean: 32.33 ×10^4
MCF-7 cells; [16]
  % Inhibition: 44.67% and 45.53% and 42.07%
  Cells (×10^4): 32.0 ×10^4 and 31.5 ×10^4 and 33.5 ×10^4
MCF-7 cells; 10 μg/ml
  Drug Inhibition on MCF-7 Cells: 81.99
MCF-7 cells; [17]
  % Inhibition Mean: 81.99%
  Cells (×10^4) Mean: 10.42 ×10^4
MCF-7 cells; [18]
  % Inhibition: 82.71% and 81.41% and 81.84%
  Cells (×10^4): 10.0 ×10^4 and 10.8 ×10^4 and 10.5 ×10^4
MCF-7 cells; 50 μg/ml
  Drug Inhibition on MCF-7 Cells: 98.70
MCF-7 cells; [19]
  % Inhibition Mean: 98.70%
  Cells (×10^4) Mean: 0.75 ×10^4
MCF-7 cells; [20]
  % Inhibition: 98.27% and 99.14% and 98.70%
  Cells (×10^4): 1.0 ×10^4 and 0.5 ×10^4 and 0.8 ×10^4
PC-3 cells; 1 μg/ml
  Drug Inhibition on PC-3 cells: 42.4
  % Inhibition Mean: 25.09%
  Cells (×10^4) Mean: 73.42 ×10^4
  % Inhibition: 24.23% and 24.49% and 26.53%
  Cells (×10^4): 74.3 ×10^4 and 74.0 ×10^4 and 72.0 ×10^4
PC-3 cells; 5 μg/ml
  Drug Inhibition on PC-3 cells: 73.76
  % Inhibition Mean: 28.57%
  Cells (×10^4) Mean: 70.00 ×10^4
  % Inhibition: 29.59% and 29.08% and 27.04%
  Cells (×10^4): 69.0 ×10^4 and 69.5 ×10^4 and 71.5 ×10^4
PC-3 cells; 10 μg/ml
  Drug Inhibition on PC-3 cells: 87.02
  % Inhibition Mean: 29.00%
  Cells (×10^4) Mean: 69.58 ×10^4
  % Inhibition: 30.61% and 28.57% and 27.81%
PC-3 cells; 50 μg/ml
  Drug Inhibition on PC-3 cells: 96.96
  % Inhibition Mean: 36.65%
  Cells (×10^4) Mean: 62.08 ×10^4
  % Inhibition: 31.88% and 33.16% and 45.41%
  Cells (×10^4): 67.3 ×10^4 and 65.5 ×10^4 and 53.5 ×10^4
PC-3 cells
  inhibitory activity compared to AZT: much superior inhibitory activities; also recorded: as good or somewhat better

## COc1cc(C=CC(=O)c2cc(Cl)cc(Cl)c2O)cc(OC)c1OC [CHCl 3M]
MCF-7 cells; [1]
  Cells (×10^4) Mean: 53.17 ×10^4
MCF-7 cells; drug 1 μg/ml, mean of replicates, vs 2% DMSO
  % Inhibition Mean: −4.42%
MCF-7 cells; [2]
  Cells (×10^4): 54.0 ×10^4 and 54.3 ×10^4 and 51.3 ×10^4
MCF-7 cells; [3]
  % Inhibition: −6.06% and −6.55% and −0.65%
MCF-7 cells; [4]
  Cells (×10^4) Mean: 52.75 ×10^4
MCF-7 cells; drug 5 μg/ml, mean of replicates, vs 2% DMSO
  % Inhibition Mean: −3.6%
MCF-7 cells; [5]
  Cells (×10^4): 53.8 ×10^4 and 51.5 ×10^4 and 50.0 ×10^4
MCF-7 cells; [6]
  % Inhibition: −5.56% and −1.15% and −4.09%
MCF-7 cells; [7]
  Cells (×10^4) Mean: 43.75 ×10^4
MCF-7 cells; drug 10 μg/ml, mean of replicates, vs 2% DMSO
  % Inhibition Mean: 14.08%
MCF-7 cells; [8]
  Cells (×10^4): 42.5 ×10^4 and 43.3 ×10^4 and 45.5 ×10^4
MCF-7 cells; [9]
  % Inhibition: 16.53% and 15.06% and 10.64%
MCF-7 cells; [10]
  Cells (×10^4) Mean: 31.50 ×10^4
MCF-7 cells; drug 50 μg/ml, mean of replicates, vs 2% DMSO
  % Inhibition Mean: 38.13%
MCF-7 cells; [11]
  Cells (×10^4): 32.0 ×10^4 and 32.8 ×10^4 and 29.8 ×10^4
MCF-7 cells; [12]
  % Inhibition: 37.15% and 35.68% and 41.57%
